# Key:
# [1] = test system: PDX PA3029; experiment: karenitecin treatment of PDX model; format: in vivo; design: key to Response: responder: responded to karenitecin treatment (AUC<0.5 and TGI>0.8); non_responder: did not respond to karenitecin treatment (AUC>0.5 and TGI<0.6); settings: karenitecin treatment for two weeks
# Description: (§1) A cohort of 48 PDX models in 8 cancers were used in this study. Those models were subject to karenitecin treatment for two weeks. Both tumor growth inhibition (TGI) and median AUC (area under curve) ratio, a newly developed metric to evaluate drug efficacy, were calculated (Table 1). Those models can be divided into two categories according to TGI and median AUC ratio.
# [2] = test system: PDX CR0133; experiment: karenitecin treatment of PDX model; format: in vivo; design: key to Response: responder: responded to karenitecin treatment (AUC<0.5 and TGI>0.8); non_responder: did not respond to karenitecin treatment (AUC>0.5 and TGI<0.6); settings: karenitecin treatment for two weeks
# Description: as §1
# [3] = test system: PDX OV0243; experiment: karenitecin treatment of PDX model; format: in vivo; design: key to Response: responder: responded to karenitecin treatment (AUC<0.5 and TGI>0.8); non_responder: did not respond to karenitecin treatment (AUC>0.5 and TGI<0.6); settings: karenitecin treatment for two weeks
# Description: as §1
# [4] = test system: PDX GA3055; experiment: karenitecin treatment of PDX model; format: in vivo; design: key to Response: responder: responded to karenitecin treatment (AUC<0.5 and TGI>0.8); non_responder: did not respond to karenitecin treatment (AUC>0.5 and TGI<0.6); settings: karenitecin treatment for two weeks
# Description: as §1
# [5] = test system: PDX ES0176; experiment: karenitecin treatment of PDX model; format: in vivo; design: key to Response: responder: responded to karenitecin treatment (AUC<0.5 and TGI>0.8); non_responder: did not respond to karenitecin treatment (AUC>0.5 and TGI<0.6); settings: karenitecin treatment for two weeks
# Description: as §1
# [6] = test system: PDX LU1542; experiment: karenitecin treatment of PDX model; format: in vivo; design: key to Response: responder: responded to karenitecin treatment (AUC<0.5 and TGI>0.8); non_responder: did not respond to karenitecin treatment (AUC>0.5 and TGI<0.6); settings: karenitecin treatment for two weeks
# Description: as §1
# [7] = test system: PDX CR6249; experiment: karenitecin treatment of PDX model; format: in vivo; design: key to Response: responder: responded to karenitecin treatment (AUC<0.5 and TGI>0.8); non_responder: did not respond to karenitecin treatment (AUC>0.5 and TGI<0.6); settings: karenitecin treatment for two weeks
# Description: as §1
# [8] = test system: PDX LU1271; experiment: karenitecin treatment of PDX model; format: in vivo; design: key to Response: responder: responded to karenitecin treatment (AUC<0.5 and TGI>0.8); non_responder: did not respond to karenitecin treatment (AUC>0.5 and TGI<0.6); settings: karenitecin treatment for two weeks
# Description: as §1
# [9] = test system: PDX GL1208; experiment: karenitecin treatment of PDX model; format: in vivo; design: key to Response: responder: responded to karenitecin treatment (AUC<0.5 and TGI>0.8); non_responder: did not respond to karenitecin treatment (AUC>0.5 and TGI<0.6); settings: karenitecin treatment for two weeks
# Description: as §1
# [10] = test system: PDX CR0126; experiment: karenitecin treatment of PDX model; format: in vivo; design: key to Response: responder: responded to karenitecin treatment (AUC<0.5 and TGI>0.8); non_responder: did not respond to karenitecin treatment (AUC>0.5 and TGI<0.6); settings: karenitecin treatment for two weeks
# Description: as §1
# [11] = test system: PDX GA3109; experiment: karenitecin treatment of PDX model; format: in vivo; design: key to Response: responder: responded to karenitecin treatment (AUC<0.5 and TGI>0.8); non_responder: did not respond to karenitecin treatment (AUC>0.5 and TGI<0.6); settings: karenitecin treatment for two weeks
# Description: as §1
# [12] = test system: PDX CR2528; experiment: karenitecin treatment of PDX model; format: in vivo; design: key to Response: responder: responded to karenitecin treatment (AUC<0.5 and TGI>0.8); non_responder: did not respond to karenitecin treatment (AUC>0.5 and TGI<0.6); settings: karenitecin treatment for two weeks
# Description: as §1
# [13] = test system: PDX CR2524; experiment: karenitecin treatment of PDX model; format: in vivo; design: key to Response: responder: responded to karenitecin treatment (AUC<0.5 and TGI>0.8); non_responder: did not respond to karenitecin treatment (AUC>0.5 and TGI<0.6); settings: karenitecin treatment for two weeks
# Description: as §1
# [14] = test system: PDX OV0276; experiment: karenitecin treatment of PDX model; format: in vivo; design: key to Response: responder: responded to karenitecin treatment (AUC<0.5 and TGI>0.8); non_responder: did not respond to karenitecin treatment (AUC>0.5 and TGI<0.6); settings: karenitecin treatment for two weeks
# Description: as §1
# [15] = test system: PDX GA3102; experiment: karenitecin treatment of PDX model; format: in vivo; design: key to Response: responder: responded to karenitecin treatment (AUC<0.5 and TGI>0.8); non_responder: did not respond to karenitecin treatment (AUC>0.5 and TGI<0.6); settings: karenitecin treatment for two weeks
# Description: as §1
# [16] = test system: PDX ES0201; experiment: karenitecin treatment of PDX model; format: in vivo; design: key to Response: responder: responded to karenitecin treatment (AUC<0.5 and TGI>0.8); non_responder: did not respond to karenitecin treatment (AUC>0.5 and TGI<0.6); settings: karenitecin treatment for two weeks
# Description: as §1
# [17] = test system: PDX LU0858; experiment: karenitecin treatment of PDX model; format: in vivo; design: key to Response: responder: responded to karenitecin treatment (AUC<0.5 and TGI>0.8); non_responder: did not respond to karenitecin treatment (AUC>0.5 and TGI<0.6); settings: karenitecin treatment for two weeks
# Description: as §1
# [18] = test system: extensively pretreated ovarian cancer; settings: previous clinical trial (Kavanagh 2008); cited from earlier work
# [19] = test system: 48 PDX models in 8 cancers; experiment: karenitecin treatment of a cohort of 48 PDX models; format: in vivo; settings: number of the 48 PDX models in 8 cancers; treatment for two weeks
# Description: as §1
structure (smiles),measurement,setting,value
CC[C@@]1(O)C(=O)OCc2c1cc1n(c2=O)Cc2c-1nc1ccccc1c2CC[Si](C)(C)C [karenitecin],Median AUC ratio,[1],0.768
same,Response,[1],non_responder
same,TGI,[1],0.423
same,Median AUC ratio,[2],0.275
same,Response,[2],responder
same,TGI,[2],0.905
same,Median AUC ratio,[3],−1.983
same,Response,[3],responder
same,TGI,[3],1.449
same,Median AUC ratio,[4],−0.072
same,Response,[4],responder
same,TGI,[4],1.215
same,Median AUC ratio,[5],1.242
same,Response,[5],non_responder
same,TGI,[5],−0.177
same,Median AUC ratio,[6],−3.610
same,Response,[6],responder
same,TGI,[6],1.195
same,Median AUC ratio,[7],−0.712
same,Response,[7],responder
same,TGI,[7],1.253
same,Median AUC ratio,[8],−0.007
same,Response,[8],responder
same,TGI,[8],1.081
same,Median AUC ratio,[9],0.811
same,Response,[9],non_responder
same,TGI,[9],0.135
same,Median AUC ratio,[10],1.399
same,Response,[10],non_responder
same,TGI,[10],−0.308
same,Median AUC ratio,[11],0.137
same,Response,[11],responder
same,TGI,[11],1.046
same,Median AUC ratio,[12],1.014
same,Response,[12],non_responder
same,TGI,[12],0.519
same,Median AUC ratio,[13],0.333
same,Response,[13],responder
same,TGI,[13],1.120
same,Median AUC ratio,[14],0.314
same,Response,[14],responder
same,TGI,[14],1.103
same,Median AUC ratio,[15],0.084
same,Response,[15],responder
same,TGI,[15],1.061
same,Median AUC ratio,[16],1.093
same,Response,[16],non_responder
same,TGI,[16],0.529
same,Median AUC ratio,[17],0.027
same,Response,[17],responder
same,TGI,[17],1.000
same,response rate,[18],low
same,models did not respond to karenitecin treatment (AUC>0.5 and TGI<0.6),[19],17
same,models responded to karenitecin treatment (AUC<0.5 and TGI>0.8),[19],Thirty-one
